Laboratory results published in patent EP1499590B1, “Piperidine derivatives as potassium channel blockers” (AstraZeneca AB, priority 2001, dated 2003).
Like-named read-outs stand apart in the source and are kept apart here.

Target: T1, human ether-a-go-go-related-gene (hERG)-encoded potassium channel (Homo sapiens, UniProt Q12809)
T1 construct: expressed in transfected cells; host or cells: Human embryonic kidney (HEK) cells, grown under Geneticin G418 selection
Experiment: hERG-encoded potassium channel inhibition test (whole-cell patch clamp, tail current)
Assay type: cell-based

[1] = HEK cells expressing the hERG-encoded channel, tail current after step from +40 mV to -50 mV, room temperature (~20 °C), read-out: IC50

T1 sequence (Q12809 whole entry): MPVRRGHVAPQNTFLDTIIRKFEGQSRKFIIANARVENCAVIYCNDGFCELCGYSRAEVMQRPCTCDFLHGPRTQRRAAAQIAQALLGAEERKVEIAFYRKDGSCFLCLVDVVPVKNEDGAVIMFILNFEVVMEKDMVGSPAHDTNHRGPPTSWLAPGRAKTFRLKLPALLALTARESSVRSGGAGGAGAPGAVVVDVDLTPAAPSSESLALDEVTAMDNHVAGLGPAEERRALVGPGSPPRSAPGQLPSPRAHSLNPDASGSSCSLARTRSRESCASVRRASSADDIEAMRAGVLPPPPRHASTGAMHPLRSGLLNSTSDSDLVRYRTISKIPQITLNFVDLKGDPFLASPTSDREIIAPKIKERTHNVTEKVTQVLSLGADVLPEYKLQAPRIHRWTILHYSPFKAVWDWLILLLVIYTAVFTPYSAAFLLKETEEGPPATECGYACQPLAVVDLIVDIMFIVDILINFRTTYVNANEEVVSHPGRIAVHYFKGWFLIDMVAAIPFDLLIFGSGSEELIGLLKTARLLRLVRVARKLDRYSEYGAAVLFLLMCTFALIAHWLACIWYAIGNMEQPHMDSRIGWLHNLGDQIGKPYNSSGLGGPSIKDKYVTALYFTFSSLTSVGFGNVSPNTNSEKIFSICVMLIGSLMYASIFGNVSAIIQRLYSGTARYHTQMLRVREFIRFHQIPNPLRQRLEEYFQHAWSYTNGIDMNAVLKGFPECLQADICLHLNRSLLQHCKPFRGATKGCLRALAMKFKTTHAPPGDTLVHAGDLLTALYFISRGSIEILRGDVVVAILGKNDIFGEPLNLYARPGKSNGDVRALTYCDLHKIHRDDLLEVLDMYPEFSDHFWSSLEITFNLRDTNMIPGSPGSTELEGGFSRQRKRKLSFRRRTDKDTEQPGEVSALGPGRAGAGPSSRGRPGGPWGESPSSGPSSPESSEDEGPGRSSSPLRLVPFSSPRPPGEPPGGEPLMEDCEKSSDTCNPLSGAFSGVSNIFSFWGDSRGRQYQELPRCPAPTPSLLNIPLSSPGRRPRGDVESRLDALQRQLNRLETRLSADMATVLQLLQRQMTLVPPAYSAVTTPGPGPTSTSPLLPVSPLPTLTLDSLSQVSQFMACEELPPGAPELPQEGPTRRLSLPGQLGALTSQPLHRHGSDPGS
Method: This assay determines the ability of a test compound to inhibit the tail current flowing through the human ether-a-go-go-related-gene (hERG)-encoded potassium channel.
One or two days before each experiment, the cells were detached from the tissue culture flasks with Accutase (TCS Biologicals) using standard tissue culture methods. They were then put onto glass coverslips resting in wells of a 12 well plate and covered with 2 ml of the growing media.
For each cell recorded, a glass coverslip containing the cells was placed at the bottom of a Perspex chamber containing bath solution (see below) at room temperature (~20 °C). This chamber was fixed to the stage of an inverted, phase-contrast microscope. Immediately after placing the coverslip in the chamber, bath solution was perfused into the chamber from a gravity-fed reservoir for 2 minutes at a rate of ~ 2 ml/min. After this time, perfusion was stopped.
A patch pipette made from borosilicate glass tubing (GC120F, Harvard Apparatus) using a P-97 micropipette puller (Sutter Instrument Co.) was filled with pipette solution (see hereinafter). The pipette was connected to the headstage of the patch clamp amplifier (Axopatch 200B, Axon Instruments) via a silver/silver chloride wire. The headstage ground was connected to the earth electrode. This consisted of a silver/silver chloride wire embedded in 3% agar made up with 0.85% sodium chloride.
The cell was recorded in the whole cell configuration of the patch clamp technique. Following "break-in", which was done at a holding potential of -80 mV (set by the amplifier), and appropriate adjustment of series resistance and capacitance controls, electrophysiology software (Clampex, Axon Instruments) was used to set a holding potential (-80 mV) and to deliver a voltage protocol. This protocol was applied every 15 seconds and consisted of a 1 s step to +40 mV followed by a I s step to -50 mV. The current response to each imposed voltage protocol was low pass filtered by the amplifier at 1 kHz. The filtered signal was then acquired, on line, by digitising this analogue signal from the amplifier with an analogue to digital converter. […]
The amplitude of the hERG-encoded potassium channel tail current following the step from +40 mV to -50 mV was recorded on-line by Clampex software (Axon Instruments). […]
The effect of each concentration of test compound was quantified by expressing the tail current amplitude in the presence of a given concentration of test compound as a percentage of that in the presence of vehicle.
Test compound potency (IC50) was determined by fitting the percentage inhibition values making up the concentration-effect to a four parameter Hill equation using a standard data-fitting package.

| Structure (SMILES) | IC50 [1] [µM] | IC50 [µM] |
| --- | --- | --- |
| CC(=O)Nc1ccccc1OCC(O)CNC1CCN(Cc2ccc(Cl)cc2)CC1 (stereo not shown) [Comparison A] | 0.3 | – |
| COc1ccc(NC(C)=O)c(OC[C@@](C)(O)CNC2CCN(Cc3ccc(Cl)cc3)CC2)c1 [Comparison B] | 0.3 | – |
| CC(=O)Nc1ccc(Cl)cc1OCC(O)CNC1CCN(Cc2ccc(Cl)cc2)CC1 (stereo not shown) [Comparison C] | 0.1 | – |
| CC(=O)Nc1ccc(O)cc1OC[C@@](C)(O)CNC1CCN(Cc2ccc(Cl)cc2)CC1 [Example 1, 4-({(2S)-3-[2-(acetylamino)-5-hydroxyphenoxy]-2-hydroxy-2-methylpropyl}ammonio)-1-(4-chlorobenzyl)piperidinium di(2,2,2-trifluoroacetate)] | – | 31.6 |
